Reference: US7094899B2, “Vitreous form of known bradykinin antagonist” (Astellas Pharma Inc., priority 1998, dated 2006)
Values belong to the compound of their own block, whether it stands above or below them.

Legend:
[1] = Solubility test (JP XIII dissolution test, paddle method); format: physicochemical; conditions: 900 ml distilled water, paddle 50 rpm; compared with crystal types A, B, C and mixture A+C of FR173657 hydrate (FIG. 6)
Description: A solubility test was performed in conformity with the Japanese Pharmacopoeia(JP) XIII dissolution test, paddle method. As the test solution, 900 ml of distilled water was used. The paddle speed was set to 50 rpm. The vitreous form of FR173657 ([…]) was added to the test solution and 10 ml aliquots of the test solution were taken as samples in each measurement. Each sample was filtered through a 0.45 μm filter and analyzed by high-performance liquid chromatography.
As a control, crystal type A, crystal type B, crystal type C and a mixture of crystal types A and C of FR173657 hydrate were used.

[2] = Stability test of the vitreous form milled mechanically; format: physicochemical
[3] = background art statement; cited from earlier work
[4] = 25° C. Relative humidity: 60%, 3 Months
[5] = 30° C. Relative humidity: 75%, 3 Months
[6] = 40° C. Relative humidity: 75%, 3 Months

Solubility [1]: higher solubility
Appearance [2, 4]: Pale
Form DSC [2, 4]: Vitreous
Form Powder X-ray [2, 4]: Vitreous
Residual (%) [2, 4]: 102.1%
Appearance [2, 5]: Pale
Form DSC [2, 5]: Vitreous
Form Powder X-ray [2, 5]: Vitreous
Residual (%) [2, 5]: 102.1%
Appearance [2, 6]: Pale
Form DSC [2, 6]: Vitreous
Form Powder X-ray [2, 6]: Vitreous
Residual (%) [2, 6]: 101.2%
Appearance ([2]; 40° C., 3 Months): Pale
Form DSC ([2]; 40° C., 3 Months): Vitreous
Form Powder X-ray ([2]; 40° C., 3 Months): Vitreous
Residual (%) ([2]; 40° C., 3 Months): 100.8%
Appearance ([2]; 50° C., 3 Months): Pale
Form DSC ([2]; 50° C., 3 Months): Vitreous
Form Powder X-ray ([2]; 50° C., 3 Months): Vitreous
Residual (%) ([2]; 50° C., 3 Months): 101.0%
Appearance ([2]; Initial): Pale
Form DSC ([2]; Initial): Vitreous
Form Powder X-ray ([2]; Initial): Vitreous
Residual (%) ([2]; Initial): 100.0%
Compound: CC(=O)Nc1ccc(/C=C/C(=O)NCC(=O)N(C)c2ccc(Cl)c(COc3cccc4ccc(C)nc34)c2Cl)cn1 [vitreous form of FR173657, 8-[3-[N-[(E)-3-(6-acetamidopyridin-3-yl)acryloylglycyl]-N-methylamino]-2,6-dichlorobenzyloxy]-2-methylquinoline]
Stability (crystallization / decomposition) ([2]; under heat, in moisture, through physical treatment, long-term storage): neither crystallizes nor decomposes at all

Compound: CC(=O)Nc1ccc(/C=C/C(=O)NCC(=O)N(C)c2ccc(Cl)c(COc3cccc4ccc(C)nc34)c2Cl)cn1 [amorphous form, 8-[3-[N-[(E)-3-(6-acetamidopyridin-3-yl)acryloylglycyl]-N-methylamino]-2,6-dichlorobenzyloxy]-2-methylquinoline]
Solid stability [3]: poor
